{"source": "paper PMC3791872", "about": "(Bioscience Reports, 2013)", "key": {"Mcm467 [1]": {"biological_target": "T1, Mcm467 (Saccharomyces cerevisiae, UniProt P30665+P38132+P53091)", "T1 construct": "made in house; host or cells: baculovirus-infected insect cells", "T1 sequence (P30665 whole entry)": "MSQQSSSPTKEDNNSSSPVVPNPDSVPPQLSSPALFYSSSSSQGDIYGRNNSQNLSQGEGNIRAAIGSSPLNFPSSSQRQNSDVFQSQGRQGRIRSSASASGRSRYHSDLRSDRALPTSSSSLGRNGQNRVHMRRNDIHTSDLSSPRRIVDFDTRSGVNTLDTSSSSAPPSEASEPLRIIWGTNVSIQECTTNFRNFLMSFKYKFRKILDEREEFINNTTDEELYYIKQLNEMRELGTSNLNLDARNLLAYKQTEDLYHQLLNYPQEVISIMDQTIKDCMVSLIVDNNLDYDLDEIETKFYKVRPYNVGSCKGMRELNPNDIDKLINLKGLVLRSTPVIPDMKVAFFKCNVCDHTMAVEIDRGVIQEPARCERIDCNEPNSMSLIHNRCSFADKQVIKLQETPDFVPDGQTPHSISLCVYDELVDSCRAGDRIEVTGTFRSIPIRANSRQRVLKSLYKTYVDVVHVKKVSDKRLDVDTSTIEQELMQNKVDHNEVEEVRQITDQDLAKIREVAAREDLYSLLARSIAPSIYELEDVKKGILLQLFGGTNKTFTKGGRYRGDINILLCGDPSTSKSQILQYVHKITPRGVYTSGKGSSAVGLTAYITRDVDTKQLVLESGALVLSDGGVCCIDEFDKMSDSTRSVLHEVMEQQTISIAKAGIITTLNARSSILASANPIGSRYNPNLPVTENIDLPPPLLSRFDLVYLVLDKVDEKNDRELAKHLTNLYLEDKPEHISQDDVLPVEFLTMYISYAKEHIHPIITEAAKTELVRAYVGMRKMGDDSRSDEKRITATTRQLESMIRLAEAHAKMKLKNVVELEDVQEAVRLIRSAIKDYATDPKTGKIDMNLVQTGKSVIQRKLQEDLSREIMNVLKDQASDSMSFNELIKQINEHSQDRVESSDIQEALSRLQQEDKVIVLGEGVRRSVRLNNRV", "T1 sequence (P53091 whole entry)": "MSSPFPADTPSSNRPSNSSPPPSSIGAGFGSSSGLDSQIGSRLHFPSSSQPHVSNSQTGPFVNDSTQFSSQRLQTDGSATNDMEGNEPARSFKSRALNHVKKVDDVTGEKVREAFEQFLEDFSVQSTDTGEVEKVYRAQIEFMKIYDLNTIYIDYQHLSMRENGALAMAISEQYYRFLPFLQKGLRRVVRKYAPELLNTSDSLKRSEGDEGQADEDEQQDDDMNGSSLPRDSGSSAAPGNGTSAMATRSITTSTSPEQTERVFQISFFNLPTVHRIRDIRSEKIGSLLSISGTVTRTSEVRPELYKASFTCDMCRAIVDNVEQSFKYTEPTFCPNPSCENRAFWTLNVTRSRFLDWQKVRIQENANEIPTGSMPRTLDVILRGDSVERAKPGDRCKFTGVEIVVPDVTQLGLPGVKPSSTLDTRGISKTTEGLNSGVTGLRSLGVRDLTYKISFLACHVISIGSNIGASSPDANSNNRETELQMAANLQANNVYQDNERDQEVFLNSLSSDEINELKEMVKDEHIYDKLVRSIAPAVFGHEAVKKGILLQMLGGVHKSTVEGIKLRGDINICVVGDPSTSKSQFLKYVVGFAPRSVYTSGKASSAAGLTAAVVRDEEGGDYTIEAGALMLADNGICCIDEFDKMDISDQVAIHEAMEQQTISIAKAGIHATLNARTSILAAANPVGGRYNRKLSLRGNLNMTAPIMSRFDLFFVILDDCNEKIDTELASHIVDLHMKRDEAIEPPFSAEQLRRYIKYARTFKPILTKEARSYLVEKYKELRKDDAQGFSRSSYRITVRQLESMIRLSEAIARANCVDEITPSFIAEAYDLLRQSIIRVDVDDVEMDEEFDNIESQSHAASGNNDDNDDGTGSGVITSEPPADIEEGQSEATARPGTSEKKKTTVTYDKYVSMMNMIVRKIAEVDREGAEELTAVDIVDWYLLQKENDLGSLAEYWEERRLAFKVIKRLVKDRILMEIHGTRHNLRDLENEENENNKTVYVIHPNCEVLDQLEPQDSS", "T1 sequence (P38132 whole entry)": "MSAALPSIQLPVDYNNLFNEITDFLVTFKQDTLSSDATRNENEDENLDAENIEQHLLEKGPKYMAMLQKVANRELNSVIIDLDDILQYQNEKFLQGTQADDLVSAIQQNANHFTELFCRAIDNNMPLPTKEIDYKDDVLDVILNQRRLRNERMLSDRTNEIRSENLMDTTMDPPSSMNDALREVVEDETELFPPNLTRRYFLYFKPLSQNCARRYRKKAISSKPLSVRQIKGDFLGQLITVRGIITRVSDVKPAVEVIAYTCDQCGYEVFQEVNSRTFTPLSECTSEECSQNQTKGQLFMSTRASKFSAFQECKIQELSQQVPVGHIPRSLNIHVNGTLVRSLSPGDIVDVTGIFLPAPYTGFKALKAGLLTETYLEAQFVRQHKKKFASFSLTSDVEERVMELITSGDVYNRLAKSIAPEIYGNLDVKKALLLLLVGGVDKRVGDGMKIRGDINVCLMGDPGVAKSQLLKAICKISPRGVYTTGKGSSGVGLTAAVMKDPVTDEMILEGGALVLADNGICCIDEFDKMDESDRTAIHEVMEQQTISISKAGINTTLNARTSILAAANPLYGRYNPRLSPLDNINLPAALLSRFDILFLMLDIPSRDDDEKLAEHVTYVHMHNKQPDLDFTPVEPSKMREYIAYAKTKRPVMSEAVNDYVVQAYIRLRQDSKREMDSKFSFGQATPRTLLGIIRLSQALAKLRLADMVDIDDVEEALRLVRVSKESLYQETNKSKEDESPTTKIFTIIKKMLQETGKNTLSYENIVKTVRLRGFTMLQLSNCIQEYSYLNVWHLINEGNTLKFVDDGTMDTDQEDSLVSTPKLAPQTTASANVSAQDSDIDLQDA", "experiment": "ssDNA double filter-binding assay, Mcm467", "conditions": "1 mM compound, 150 nM helicase"}, "Mcm467 [2]": {"biological_target": "T1, Mcm467", "experiment": "Steady-state ATP hydrolysis by Mcm467", "format": "biochemical", "conditions": "1 mM compound, 100 nM hexamer"}, "T4 gp41": {"biological_target": "T2, T4 gp41 (Enterobacteria phage T4, UniProt P04530)", "T2 sequence (P04530 1-475)": "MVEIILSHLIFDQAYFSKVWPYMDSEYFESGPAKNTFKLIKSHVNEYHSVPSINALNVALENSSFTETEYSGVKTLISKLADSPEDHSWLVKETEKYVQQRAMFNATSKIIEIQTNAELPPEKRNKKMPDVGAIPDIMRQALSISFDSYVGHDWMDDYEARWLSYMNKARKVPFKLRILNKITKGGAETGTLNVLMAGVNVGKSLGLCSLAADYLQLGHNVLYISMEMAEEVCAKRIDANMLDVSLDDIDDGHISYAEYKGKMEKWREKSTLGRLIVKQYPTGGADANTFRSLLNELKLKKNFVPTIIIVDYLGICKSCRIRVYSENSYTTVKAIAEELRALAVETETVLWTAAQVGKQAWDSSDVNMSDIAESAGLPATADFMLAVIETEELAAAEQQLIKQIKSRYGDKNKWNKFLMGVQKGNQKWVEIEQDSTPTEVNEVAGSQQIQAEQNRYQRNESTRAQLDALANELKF", "experiment": "T4 gp41 helicase assay", "format": "biochemical", "conditions": "1 mM, Figure S3", "method": "(§1) Helicase assays were performed essentially as described. Synthetic replication forks were prepared by annealing oligos 233 and 235 [IDT (Coralville), oligo 233 5′(T)40[…]; oligo 235 5′ […](T)40] and then filling in the recessed 3′-end with [α32P]dATP and unlabelled dNTPs using Klenow Fragment. Briefly, reactions ([…]) were performed in 1× helicase assay buffer [20 mM Tris/HCl (pH 7.5), 10 mM MgOAc, 20% (v/v) glycerol, 100 μM EDTA and 5 mM DTT (dithiothreitol)] and contained a final concentration of 1 nM fork substrate, 5 mM ATP, 40 mM creatine phosphate, […] creatine kinase, 33 μg/ml BSA. Reactions containing Mcm2-7 and Mcm467 were supplemented with 200 mM potassium glutamate. Reactions containing SsoMcm were incubated at 65°C, those containing T4 gp41 were incubated for 30 min at 37°C, and all other reactions were incubated at 37°C for 1 h. The products were separated by 10% (w/v) native PAGE, the resulting gels dried and the radioactivity quantified using a Fuji FLA-5100 phosphoimager. Irrespective of the protein used, all helicase assays contained equal molar helicase concentrations (100 nM, assuming in all cases that the active helicase form is hexameric). Steady-state ATP hydrolysis was assayed as published. In short, reactions were set up essentially as in the helicase assay, with minor exceptions. A non-radiolabelled DNA fork was used, helicase concentration was 100 nM (hexamer) the total ATP concentration was 500 μM and included ~0.5 μCi of [α32P]ATP, and the ATP regeneration system was omitted. Reactions were incubated for 1 h at 37°C and stopped by the addition of SDS. ATP was separated from ADP by PEI (polyethyleneimine) thin layer chromatography, and the ratio of ATP:ADP was quantified using a Fuji FLA-5100 phosphoimager. Based on our prior work, conditions were established to ensure that the results shown are within the linear range of the assay. Protein–ssDNA binding was determined with a double filter-binding assay using an ssDNA probe (oligo 826, 5′[…]) that was 5′-radiolabelled using T4 polynucleotide kinase and [γ32P]ATP [16]. For the double filter-binding assay, the helicase concentration was 150 nM (hexamer) and the ssDNA concentration was 4 nM. For all biochemical assays, helicases were preincubated with inhibitors for 20 min at 37°C unless otherwise indicated. […]\n(§2) against different helicases\n(§3) Representative helicase activity assays in the presence of the indicated inhibitor were tested, quantiﬁed and standardized as described in the legend to F igures 2 (A) and (B). All helicases were assayed at 100 nM\n(§4) ﬁnal concentration (hexamer) with inhibitor preincubation prior to ATP […]\n(§5) F igure S3 Ciproﬂoxacin poor ly inhibits hexameric helicases un- […]\n(§6) All inhibitors were used at 1 mM ﬁnal concentration. […]"}, "Wild-type yeast": {"tested_on": "Wild-type yeast", "experiment": "Yeast growth inhibition, wild-type strain", "format": "cell-based, Saccharomyces cerevisiae", "conditions": "Figure 4A", "method": "S. cerevisiae growth inhibition was quantified using an established 96-well assay. Two isogenic W303 tester strains were used (construction details available upon request): UPY675 (matA, ade2-1, ura3-1, his3-11,15, trp1-1, leu2-3,112, can1-100, bar1::hisG, Δerg6::kanMX) and UPY1056 (isogenic to UPY675 but containing mcm4chaos3). Overnight yeast cultures were grown in YPD medium (1% (w/v) yeast extract/2% (w/v) peptone/2% (w/v) glucose), diluted to 0.05 A600, grown to an A600 of 0.1–0.15, divided into aliquots into a 96-well plate, and then treated with inhibitor titrations. Inhibitors were first diluted in pure DMSO, and then added to wells to a final volume of 100 μl containing 2% (v/v) DMSO. Plates were grown without shaking at 30°C for 24 h. Optical density was quantified at 0 and 24 h with a Bio-tek EL800 Universal Microplate reader. Percent relative growth was determined by calculating the change in optical density over 24 h at each concentration relative to a 2% DMSO control."}, "Mcm467 [3]": {"biological_target": "T1, Mcm467", "experiment": "Mcm467 helicase (DNA unwinding) assay", "format": "biochemical", "conditions": "DNA unwinding, 100 nM hexamer, inhibitor preincubation; […]; read-out: IC50 Mcm467"}, "[4]": {"biological_target": "SV40 large TAg (T-antigen) (Simian virus 40, UniProt P03070)", "sequence (P03070 whole entry, looked up)": "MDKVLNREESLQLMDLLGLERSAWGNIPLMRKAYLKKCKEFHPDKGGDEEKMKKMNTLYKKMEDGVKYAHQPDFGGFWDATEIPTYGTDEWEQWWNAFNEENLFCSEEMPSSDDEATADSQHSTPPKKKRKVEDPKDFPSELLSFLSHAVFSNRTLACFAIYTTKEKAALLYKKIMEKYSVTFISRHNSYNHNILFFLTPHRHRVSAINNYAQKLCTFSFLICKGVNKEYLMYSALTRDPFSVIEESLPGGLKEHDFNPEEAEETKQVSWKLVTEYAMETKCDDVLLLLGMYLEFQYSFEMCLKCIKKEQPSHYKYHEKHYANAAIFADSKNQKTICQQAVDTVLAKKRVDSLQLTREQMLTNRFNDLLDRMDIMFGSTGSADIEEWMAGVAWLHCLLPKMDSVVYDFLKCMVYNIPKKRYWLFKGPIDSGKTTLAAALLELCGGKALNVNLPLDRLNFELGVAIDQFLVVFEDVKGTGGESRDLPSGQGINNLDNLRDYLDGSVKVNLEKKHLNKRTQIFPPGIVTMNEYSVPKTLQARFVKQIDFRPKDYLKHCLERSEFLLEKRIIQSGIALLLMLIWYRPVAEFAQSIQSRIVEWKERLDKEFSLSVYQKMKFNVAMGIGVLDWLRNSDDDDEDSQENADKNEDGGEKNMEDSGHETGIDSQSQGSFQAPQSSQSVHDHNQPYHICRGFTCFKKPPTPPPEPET", "experiment": "biochemical", "set-up": "species or system SV40 (simian virus 40)", "conditions": "DNA unwinding"}, "DnaB": {"biological_target": "DnaB (Escherichia coli, UniProt P0ACB0)", "sequence (P0ACB0 whole entry)": "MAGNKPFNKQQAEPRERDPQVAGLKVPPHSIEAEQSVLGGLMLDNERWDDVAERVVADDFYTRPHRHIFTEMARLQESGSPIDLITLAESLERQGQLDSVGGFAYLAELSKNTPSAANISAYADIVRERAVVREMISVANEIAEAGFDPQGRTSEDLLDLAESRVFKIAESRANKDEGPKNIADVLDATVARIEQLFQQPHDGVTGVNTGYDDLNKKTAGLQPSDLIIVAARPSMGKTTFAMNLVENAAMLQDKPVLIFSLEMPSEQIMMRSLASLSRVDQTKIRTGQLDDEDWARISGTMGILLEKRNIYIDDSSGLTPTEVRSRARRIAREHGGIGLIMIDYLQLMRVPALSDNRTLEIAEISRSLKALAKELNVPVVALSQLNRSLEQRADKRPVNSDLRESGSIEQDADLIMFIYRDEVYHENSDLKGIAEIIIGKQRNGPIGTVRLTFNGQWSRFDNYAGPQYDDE", "experiment": "DnaB helicase assay", "format": "biochemical", "conditions": "1 mM, Figure S3", "method": "as §1, §2, §3, §4, §5, §6"}}, "note": "Where two headings read alike, the source gives them in different places."}
{"smiles": "O=C(O)c1cn(C2CC2)c2cc(N3CCNCC3)c(F)cc2c1=O", "note": "[Ciprofloxacin, ciprofloxacin, reference compound]", "values": [{"measurement": "effect on ssDNA binding of Mcm467", "setting": "Mcm467 [1]", "result": "only modest effects"}, {"measurement": "effect on ATP hydrolysis of Mcm467", "setting": "Mcm467 [2]", "result": "only modest effects"}, {"measurement": "inhibition of T4 gp41 helicase", "setting": "T4 gp41", "result": "none of the tested helicases were substantially inhibited"}, {"measurement": "growth response of wild-type yeast", "setting": "Wild-type yeast", "result": "resistant"}, {"measurement": "IC50", "setting": "Mcm467 [3]", "result": 1.89, "unit": "mM"}, {"measurement": "IC50", "setting": "[4]; 100 nM complex, read-out: IC50 TAg helicase activity", "result": 4, "unit": "mM"}, {"measurement": "IC50", "setting": "[4]; 100 nM hexamer, inhibitor preincubation, […], read-out: IC50 T-antigen", "result": 4.01, "unit": "mM"}, {"measurement": "inhibition of DnaB helicase", "setting": "DnaB", "result": "none of the tested helicases were substantially inhibited"}]}
